Data published in patent US20260125382A1, “COMPOUNDS FOR INHIBITING OR DEGRADING CDK2 AND/OR CDK9 AND MEDICINAL USE THEREOF” (KOREA RESEARCH INSTITUTE OF CHEMICAL TECHNOLOGY, priority 2022, published 2026).

How the values were obtained:
CDK2 = target: T1, CDK2 (Homo sapiens, UniProt P24941); assay: CDK protein degradation activity (Western blotting), CDK2; format: cell-based; settings: MDA-MB-231 cells, 16 hours, Western blot
T1 construct: endogenous in cells; host or cells: MDA-MB-231
Outline: (§1)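 MDA-MB-231; cmpd 100 nM / 1 μM / 10 μM final vs DMSO, 16 h. Triton X-100 lysates (pH 7.5, phosphatase/protease inhibitors) → SDS-PAGE → Western blot, anti-CDK2, anti-CDK9, tubulin loading control; densitometry.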

CDK9 = target: T2, CDK9 (Homo sapiens, UniProt P50750); assay: CDK protein degradation activity (Western blotting), CDK9; format: cell-based; settings: MDA-MB-231 cells, 16 hours, Western blot
T2 construct: endogenous in cells; host or cells: MDA-MB-231
Outline: as §1

T2 sequence (P50750 whole entry): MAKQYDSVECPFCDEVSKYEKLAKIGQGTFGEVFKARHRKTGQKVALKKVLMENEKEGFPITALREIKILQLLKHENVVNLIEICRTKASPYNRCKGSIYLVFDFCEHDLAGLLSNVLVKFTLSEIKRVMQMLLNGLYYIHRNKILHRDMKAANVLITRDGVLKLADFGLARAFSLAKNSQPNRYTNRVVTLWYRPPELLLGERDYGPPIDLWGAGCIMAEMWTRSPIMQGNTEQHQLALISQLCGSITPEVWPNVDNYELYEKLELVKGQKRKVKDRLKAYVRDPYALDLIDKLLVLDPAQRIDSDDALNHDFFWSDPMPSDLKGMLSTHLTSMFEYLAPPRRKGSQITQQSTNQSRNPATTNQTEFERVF

SMILES | Enzyme degradation CDK2 (% remaining) @ 0.1 μM (CDK2) | Enzyme degradation CDK2 (% remaining) @ 1 μM (CDK2) | Enzyme degradation CDK2 (% remaining) @ 10 μM (CDK2) | Enzyme degradation CDK9 (% remaining) @ 0.1 μM (CDK9) | Enzyme degradation CDK9 (% remaining) @ 1 μM (CDK9) | Enzyme degradation CDK9 (% remaining) @ 10 μM (CDK9)
O=C1CC[C@H](N2C(=O)c3ccc(N4CC(C(=O)N5CCN(C6CCN(c7ccc(Nc8ncnc9c8ncn9C8CC(NC(=O)Cc9ccccc9)C8)cc7)CC6)CC5)C4)cc3C2=O)C(=O)N1 (stereo partly drawn) [Compound 364, N-((1s,3s)-3-(6-((4-(4-(4-(1-(2-(2,6-dioxopiperidin-3-yl)-1,3-dioxoisoindolin-5-yl)azetidin-3-carbonyl)piperazin-1-yl)piperidin-1-yl)phenyl)amino)-9H-purin-9-yl)cyclobutyl)-2-phenylacetamide] | 100% | 50% | 50% | 70% | 10% | 10%
O=C1CC[C@H](N2C(=O)c3ccc(N4CCC(C(=O)N5CCN(C6CCN(c7ccc(Nc8ncnc9c8ncn9C8CC(NC(=O)Cc9ccccc9)C8)cc7)CC6)CC5)CC4)cc3C2=O)C(=O)N1 (stereo partly drawn) [Compound 365, N-((1s,3s)-3-(6-((4-(4-(4-(1-(2-(2,6-dioxopiperidin-3-yl)-1,3-dioxoisoindolin-5-yl)piperidin-4-carbonyl)piperazin-1-yl)piperidin-1-yl)phenyl)amino)-9H-purin-9-yl)cyclobutyl)-2-phenylacetamide] | 60/60/60% | 60/60/60% | 60/60/60% | 30% | 10% | 10%
O=C1CC[C@H](N2C(=O)c3ccc(N4CCC(C(=O)N5CCN(CCCC6CCN(c7ccc(Nc8ncnc9c8ncn9[C@H]8C[C@@H](NC(=O)Cc9ccccc9)C8)cc7)CC6)CC5)CC4)cc3C2=O)C(=O)N1 [Compound 367, N-((1s,3s)-3-(6-((4-(4-(3-(4-(1-(2-(2,6-dioxopiperidin-3-yl)-1,3-dioxoisoindolin-5-yl)piperidin-4-carbonyl)piperazin-1-yl)propyl)piperidin-1-yl)phenyl)amino)-9H-purin-9-yl)cyclobutyl)-2-phenylacetamide] | 10% | 0% | 0% | 10% | 0% | 0%
O=C1CC[C@H](N2C(=O)c3ccc(N4CC(C(=O)N5CCN(C6CN(c7ccc(Nc8ncnc9c8ncn9[C@H]8C[C@@H](NC(=O)Cc9ccccc9)C8)cc7)C6)CC5)C4)cc3C2=O)C(=O)N1 [Compound 373, N-((1s,3s)-3-(6-((4-(3-(4-(1-(2-(2,6-dioxopiperidin-3-yl)-1,3-dioxoisoindolin-5-yl)azetidin-3-carbonyl)piperazin-1-yl)azetidin-1-yl)phenyl)amino)-9H-purin-9-yl)cyclobutyl)-2-phenylacetamide] | 30/30/30% | 30/30/30% | 30/30/30% | 40% | 20% | 20%
O=C1CCC(N2C(=O)c3ccc(N4CC(C(=O)N5CCN(C6CN(c7ccc(Nc8ncnc9c8ncn9[C@H]8C[C@@H](NC(=O)Cc9ccccc9)C8)cc7)C6)CC5)C4)cc3C2=O)C(=O)N1 (stereo partly drawn) [Compound 374, N-((1s,3s)-3-(6-((4-(3-(4-(1-(2-(2,6-dioxopiperidin-3-yl)-1,3-dioxoisoindolin-5-yl)azetidin-3-carbonyl)piperazin-1-yl)azetidin-1-yl)phenyl)amino)-9H-purin-9-yl)cyclobutyl)-2-phenylacetamide] | 30% | 30% | 50% | 30% | 20% | 20%
O=C1CC[C@H](N2C(=O)c3ccc(N4CCC(C(=O)N5CCC6(CC5)CC(N5CCN(c7ccc(Nc8ncnc9c8ncn9[C@H]8C[C@@H](NC(=O)c9c(Cl)cccc9Cl)C8)cc7)CC5)C6)CC4)cc3C2=O)C(=O)N1 [Compound 376, 2,6-dichloro-N-((1s,3s)-3-(6-((4-(4-(7-(1-(2-(2,6-dioxopiperidin-3-yl)-1,3-dioxoisoindolin-5-yl)piperidin-4-carbonyl)-7-azaspiro[3.5]nonan-2-yl)piperazin-1-yl)phenyl)amino)-9H-purin-9-yl)cyclobutyl)benzamide] | 30/30/30% | 30/30/30% | 30/30/30% | 10/10/10% | 10/10/10% | 10/10/10%

The next lines start with the values.

Enzyme degradation CDK2 (% remaining) @ 0.1 μM (CDK2) | Enzyme degradation CDK2 (% remaining) @ 1 μM (CDK2) | Enzyme degradation CDK2 (% remaining) @ 10 μM (CDK2) | Enzyme degradation CDK9 (% remaining) @ 0.1 μM (CDK9) | Enzyme degradation CDK9 (% remaining) @ 1 μM (CDK9) | Enzyme degradation CDK9 (% remaining) @ 10 μM (CDK9) | SMILES
0/0/0% | 0/0/0% | 0/0/0% | 0/0/0% | 0/0/0% | 0/0/0% | O=C1CC[C@H](n2nnc3ccc(N4CCN(CC5CCN(c6ccc(Nc7ncnc8c7ncn8C7CC(NC(=O)c8c(Cl)cccc8Cl)C7)cc6)CC5)CC4)cc3c2=O)C(=O)N1 (stereo partly drawn) [Compound 370, 2,6-dichloro-N-((1s,3s)-3-(6-((4-(4-((4-(3-(2,6-dioxopiperidin-3-yl)-4-oxo-3,4-dihydrobenzo[d][1,2,3]triazin-6-yl)piperazin-1-yl)methyl)piperidin-1-yl)phenyl)amino)-9H-purin-9-yl)cyclobutyl)benzamide]
0/0/0% | 0/0/0% | 0/0/0% | 0/0/0% | 0/0/0% | 0/0/0% | O=C1CC[C@H](n2nnc3ccc(N4CCC(CN5CCN(c6ccc(Nc7ncnc8c7ncn8C7CC(NC(=O)c8c(Cl)cccc8Cl)C7)cc6)CC5)CC4)cc3c2=O)C(=O)N1 (stereo partly drawn) [Compound 371, 2,6-dichloro-N-((1s,3s)-3-(6-((4-(4-((1-(3-(2,6-dioxopiperidin-3-yl)-4-oxo-3,4-dihydrobenzo[d][1,2,3]triazin-6-yl)piperidin-4-yl)methyl)piperazin-1-yl)phenyl)amino)-9H-purin-9-yl)cyclobutyl)benzamide]
90% | 50% | 50% | 0/0/0% | 0/0/0% | 0/0/0% | O=C1CC[C@H](N2C(=O)c3ccc(N4CC(C(=O)N5CCC(CCCN6CCN(c7ccc(Nc8ncnc9c8ncn9C8CC(NC(=O)Cc9ccccc9)C8)cc7)CC6)CC5)C4)cc3C2=O)C(=O)N1 (stereo partly drawn) [Compound 372, N-((1s,3s)-3-(6-((4-(4-(3-(1-(1-(2-(2,6-dioxopiperidin-3-yl)-1,3-dioxoisoindolin-5-yl)azetidin-3-carbonyl)piperidin-4-yl)propyl)piperazin-1-yl)phenyl)amino)-9H-purin-9-yl)cyclobutyl)-2-phenylacetamide]
30% | 10% | 10% | 30% | 10% | 10% | O=C1CC[C@H](N2C(=O)c3ccc(N4CC(CN5CCC(CCN6CCN(c7ccc(Nc8ncnc9c8ncn9[C@H]8C[C@@H](NC(=O)Cc9ccccc9)C8)cc7)CC6)CC5)C4)cc3C2=O)C(=O)N1 [Compound 375, N-((1s,3s)-3-(6-((4-(4-(2-(1-((1-(2-(2,6-dioxopiperidin-3-yl)-1,3-dioxoisoindolin-5-yl)azetidin-3-yl)methyl)piperidin-4-yl)ethyl)piperazin-1-yl)phenyl)amino)-9H-purin-9-yl)cyclobutyl)-2-phenylacetamide]
20% | 10% | 10% | 0/0/0% | 0/0/0% | 0/0/0% | Cc1cccc(C(=O)N[C@H]2C[C@@H](n3cnc4c(Nc5ccc(N6CCN(CC7CCN(c8cc9c(cc8F)C(=O)N([C@H]8CCC(=O)NC8=O)C9=O)CC7)CC6)cc5)ncnc43)C2)n1 [Compound 377, N-((1s,3s)-3-(6-((4-(4-((1-(2-(2,6-dioxopiperidin-3-yl)-6-fluoro-1,3-dioxoisoindolin-5-yl)piperidin-4-yl)methyl)piperazin-1-yl)phenyl)amino)-9H-purin-9-yl)cyclobutyl)-6-methylpicolinamide]
10/10/10% | 10/10/10% | 10/10/10% | 0/0/0% | 0/0/0% | 0/0/0% | Cc1cccc(C(=O)NC2CC(n3cnc4c(Nc5ccc(N6CCN(CC7CCN(c8ccc9nnn([C@H]%10CCC(=O)NC%10=O)c(=O)c9c8)CC7)CC6)cc5)ncnc43)C2)n1 (stereo partly drawn) [Compound 378, N-((1s,3s)-3-(6-((4-(4-((1-(3-(2,6-dioxopiperidin-3-yl)-4-oxo-3,4-dihydrobenzo[d][1,2,3]triazin-6-yl)piperidin-4-yl)methyl)piperazin-1-yl)phenyl)amino)-9H-purin-9-yl)cyclobutyl)-6-methylpicolinamide]
